In patent US6436960B1, “Farnesyl transferase inhibitors having a piperidine structure and process for preparation thereof” (LG Chemical Ltd., priority 1998, dated 2002) one finds IC50 data, which are given here for 14 compounds.

The target of assay [1] is T1, Ras farnesyl transferase (Homo sapiens, UniProt P49354+P49356).
T1 construct: made in house
The assay can be described thus: in vitro inhibitory activity for Ras farnesyl transferase, H-Ras substrate. It counts as biochemical. The conditions noted are these: recombinant Ras farnesyl transferase, H-Ras substrate, tritium-farnesylpyrophosphate, 30 minutes at 37° C.; read-out: H-Ras IC50. As to the method: In the present experiment, Ras farnesyl transferase produced by genetic recombination techniques according to the improved Pompliano's method (Pompliano et al., Biochemistry, 1992, 31, 3800) was used, and Ras substrate(Ras-CVLS) protein described in Korean Patent Appln. No. 97-14409 was used after it has been purified according to the known method(see, Chung et al., Biochimica et Biophysica Acta, 1992, 278, 1129).
(§1) The enzyme reaction was performed in 50 μl of 50 mM Soduam HEPES buffer solution containing 25 mM of potassium chloride, 25 mM of magnesium chloride, 10 mM of DTT and 50 μM of zinc chloride. 1.5 μM of Ras substrate protein, 0.15 μM of tritium-farnesylpyrophosphate and 4.5 nM of farnesyl transferase were used.
(§2) More specifically, in the initial step, farnesyl transferase was added to the above buffer solution, reaction was maintained for 30 minutes at 37° C. and then the reaction was stopped by adding 1 ml of ethanol solution containing 1M HCl. The formed precipitates were adsorbed to GF/B filter using Hopper harvestor(Hopper #FH 225V) for filter-binding, washed with ethanol, and then radioactivity of the dried filter was measured using LKB β counter. Enzyme titer was measured in the unsaturated state of substrate where the concentrations of Ras substrate protein and farnesyl transferase have quantitative relationship. The compound according to the present invention dissolved in dimethyl sulfoxide(DMSO) was added to the reaction solution in an amount of less than 5% of the total reaction solution, and then the enzyme inhibitory activity thereof was measured. The enzyme inhibitory activity was represented by percentage of the amount of farnesyl incorporated into the Ras substrate protein in the presence of the test compound to that in the absence of the test compound. IC50 of the test compound was defined as the concentration at which 50% of the enzyme activity was inhibited.

Assay [2] addresses T2, Ras farnesyl transferase (Rattus norvegicus, UniProt Q02293+Q04631).
T2 construct: endogenous in cells; host or cells: Rat2 fibroblasts transformed with C-Harvey-Ras, or with H-Ras carrying the K-Ras C-terminal polybasic lysine domain
Kind of assay: in vivo (cellular) Ras farnesyl transferase inhibitory activity, Rat2 cells expressing C-Harvey-Ras. Type of assay: cell-based. The conditions noted are these: Rat2 cell line expressing C-Harvey-Ras; concentration inhibiting 50% of farnesyl binding of Ras protein; read-out: H-Ras CIC50. As to the method: (§3) In the present experiment, Rat2 cell line which expresses C-Harvey-Ras protein having transforming activity and Rat2 cell line(Korean patent application No. 97-14409) which is transformed with fused protein of H-Ras substituted with polybasic lysine domain at C-terminus of K-Ras were used. The experiment was performed by the modified Declue's method(Declue. J. E. et al., Cancer Research, 1991, 51, 712). Hereinafter, the experimental method will be described in more detail.
(§4) 3×10^5 cells of transformed Rat2 fibroblast cell line were sprayed on 60 mm cell cultivation dish and cultivated for 48 hours in a cell incubator at 37° C. and after 50% or more of density was reached, it was treated with the test compounds. The compound according to the present invention dissolved in dimethylsulfoxide(DMSO) was used. 1% concentration of dimethylsulfoxide was used in both control and test groups. After 4 hours from the treatment with the compound, methionine labeled with 150 μCi of radioactive isotope [^35S] per 1 ml of medium was added and after cultivating for 20 hours, the cells were washed with physiological saline water. The cells were lysed using 1 ml of cold cell lysis buffer solution(50 mM of Sodium HEPES buffer solution containing 5 mM of magnesium chloride, 1 mM of DTT, 1% NP 40, 1 mM of EDTA, 1 mM of PMSF, 2 μM of leupeptin, 2 μM of pepstatin A and 2 μM of antipain) and the supernatant wherein the cells were lysed was obtained by high-velocity centrifugation of 12,000 g×5 minutes. The amount of radioisotope in the supernatant was measured and standardized to obtain a quantitative result in immunoprecipitation reaction and then, Y13-259, a monoclonal antiboby specifically binding to Ras protein(Furth, M. E. et al., J. Virol, 1982, 43, 294) was added and reacted for 15 hours at 4° C. Protein A(combined with goat anti-murine imunoglobulin antibody)-agarose suspension was added to the solution and reacted for 1 hour at 4° C. and then, to remove the unspecific binding product, immunoprecipitates were washed with a buffer solution (50 mM Tris chloride buffer solution containing 50 mM of sodium chloride, 0.5% of sodium dioxycholate, 0.5% of NP 40 and 0.1% of SDS). The precipitates were added to a buffer solution for electrophoresis and boiled and then, electrophoresis was performed using 13.5% of SDS polyacrylamide gel. After electrophoresis, the gel was fixed and dried. Then, the gel was exposed to X-ray film, developed and printed. From the result of the experiment, intensities of band of protein combined with or without farnesyl of Ras protein were measured, and the concentration of the test compound inhibiting 50% of farnesyl binding was defined as CIC50, an in vivo Ras farnesyl transferase inhibitory activity.

The target of assay [3] is T2, Ras farnesyl transferase. The assay can be described thus: in vivo (cellular) Ras farnesyl transferase inhibitory activity, Rat2 cells transformed with H-Ras fused with polybasic lysine domain of K-Ras. It counts as cell-based. The settings on record: Rat2 cell line transformed with H-Ras substituted with polybasic lysine domain at C-terminus of K-Ras; concentration inhibiting 50% of farnesyl binding; read-out: K-Ras CIC50. The protocol: as §3, §4

The target of assay [4] is T1, Ras farnesyl transferase. Kind of assay: in vitro inhibitory activity for Ras farnesyl transferase, K-Ras substrate. Type of assay: biochemical. The settings on record: recombinant Ras farnesyl transferase, K-Ras substrate; read-out: K-Ras IC50. As to the method: In the present experiment, Ras farnesyl transferase produced by genetic recombination techniques according to the improved Pompliano's method (Pompliano et al., Biochemistry, 1992, 31, 3800) was used, […] Appln. No. 97-14409 was used after it has been purified according to the known method(see, Chung et al., Biochimica et Biophysica Acta, 1992, 278, 1129).
as §1, §2

As to `CN1CCN(C(=O)c2cn(Cc3cncn3CC3CCN(C(=O)OCc4ccc5ccccc5c4)CC3)cc2-c2cccc3ccccc23)CC1` [Compound 45, 3-(4-Methylpiperazin-1-yl)carbonyl-4-(naphthalen-1-yl)-1-{1-[1-(naphthalen-2-ylmethyloxy)carbonylpiperidin-4-yl]methyl-1H-imidazol-5-yl}methyl-1H-pyrrole], the IC50 is 1.8 nM on Ras farnesyl transferase [1], 35 nM on Ras farnesyl transferase [2], 10 µM at Ras farnesyl transferase [3] and 12 nM on Ras farnesyl transferase [4].

For the compound `CN1CCN(C(=O)c2cn(Cc3cncn3CC3CCN(C(=O)OCc4ccccc4)CC3)cc2-c2cccc3ccccc23)CC1` [Compound 38, 1-[1-(1-Benzyloxycarbonylpiperidin-4-yl)methyl-1H-imidazol-5-yl]methyl-3-(4-methylpiperazin-1-yl)carbonyl-4-(naphthalen-1-yl)-1H-pyrrole], the IC50 at Ras farnesyl transferase [1] is 3.8 nM; at Ras farnesyl transferase [2], 12.5 nM; at Ras farnesyl transferase [3], 2.5 µM; at Ras farnesyl transferase [4], 15 nM.

Consider `COCCN(C)C(=O)c1cn(Cc2cncn2CC2CCN(C(=O)OCc3csc(C(C)C)n3)CC2)cc1-c1cccc2ccccc12` [Compound 26], for which the IC50 on Ras farnesyl transferase [1] is 4 nM; on Ras farnesyl transferase [2], 10 to 100 nM; at Ras farnesyl transferase [3], 10 to 50 µM; on Ras farnesyl transferase [4], 10 to 100 nM.

For `CN1CCN(C(=O)c2cn(Cc3cncn3CC3CCN(C(=O)N4CCc5ccccc5C4)CC3)cc2-c2cccc3ccccc23)CC1` [Compound 55, 3-(4-Methylpiperazin-1-yl)carbonyl-4-(naphthalen-1-yl)-1-{1-[1-(1,2,3,4-tetrahydroisoquinolin-2-ylcarbonyl)piperidin-4-yl]methyl-1H-imidazol-5-yl}methyl-1H-pyrrole], the IC50 on Ras farnesyl transferase [1] is 2 nM; at Ras farnesyl transferase [2], 25 nM; at Ras farnesyl transferase [3], 10 to 50 µM; on Ras farnesyl transferase [4], 40 nM.

Turning to `COCCN(C)C(=O)c1cn(Cc2cncn2CC2CCN(C(=O)N(C)Cc3ccccc3)CC2)cc1-c1cccc2ccccc12` [Compound 30], the IC50 on Ras farnesyl transferase [1] is 2.5 nM; at Ras farnesyl transferase [2], 10 to 100 nM; on Ras farnesyl transferase [3], 1 to 10 µM; at Ras farnesyl transferase [4], 6 nM.

`COCCN(C)C(=O)c1cn(Cc2cncn2CC2CCN(C(=O)Cc3ccc(OC)cc3)CC2)cc1-c1cccc2ccccc12` [Compound 13, 1-{1-[1-(4-Methoxybenzylcarbonyl)-piperidin-4-ylmethyl]-1H-imidazol-5-ylmethyl}-3-[N-(2-methoxyethyl)-N-methyl]carbamoyl-4-(naphthalen-1-yl)-1H-pyrrole]: the IC50 at Ras farnesyl transferase [1] lay within 1 to 10 nM; on Ras farnesyl transferase [2], 10 to 100 nM; at Ras farnesyl transferase [3], 1 to 50 µM; at Ras farnesyl transferase [4], 10 to 1000 nM.

As for `COC(=O)N1CCC(Cn2cncc2Cn2cc(C(=O)N3CCN(C)CC3)c(-c3cccc4ccccc34)c2)CC1` [Compound 40, 1-[1-(1-Methoxycarbonylpiperidin-4-yl)methyl-1H-imidazol-5-yl]methyl-3-(4-methylpiperazin-1-yl)carbonyl-4-(naphthalen-1-yl)1H-pyrrole], the IC50 on Ras farnesyl transferase [1] is 1.6 nM; on Ras farnesyl transferase [2] it was 30 nM; at Ras farnesyl transferase [3], 10 to 50 µM; at Ras farnesyl transferase [4], 4.2 nM.

For `COCCN(C)C(=O)c1cn(Cc2cncn2CC2CCN(C(=O)OC/C=C(\C)CCC=C(C)C)CC2)cc1-c1cccc2ccccc12` [Compound 21], the IC50 was 10 to 100 nM at Ras farnesyl transferase [1], 10 to 100 nM on Ras farnesyl transferase [2], 1 to 10 µM on Ras farnesyl transferase [3] and 50 nM at Ras farnesyl transferase [4].

On to `COCCN(C)C(=O)c1cn(Cc2cncn2CC2CCN(C(=O)OCCC(C)C)CC2)cc1-c1cccc2ccccc12` [Compound 23], for which the IC50 is 8 nM on Ras farnesyl transferase [1], 10 to 100 nM on Ras farnesyl transferase [2], 1 to 10 µM at Ras farnesyl transferase [3] and 20 nM on Ras farnesyl transferase [4].

As for `CCC(=O)N1CCC(Cn2cncc2Cn2cc(C(=O)N(C)CCOC)c(-c3cccc4ccccc34)c2)CC1` [Compound 18, 3-[N-(2-Methoxyethyl)-N-methyl]carbamoyl-4-(naphthalen-1-yl)-1-[1-(1-propionyl-piperidin-4-ylmethyl)-1H-imidazol-5-ylmethyl]-1H-pyrrole], the IC50 at Ras farnesyl transferase [1] was 1 nM; on Ras farnesyl transferase [2], 10 to 100 nM; on Ras farnesyl transferase [3] it was 1 to 50 µM; on Ras farnesyl transferase [4], 10 to 1000 nM.

For the compound `CC(=O)N1CCC(Cn2cncc2Cn2cc(C(=O)N3CCOCC3)c(-c3cccc4ccccc34)c2)CC1` [Compound 3, 1-[1-(1-Acetylpiperidin-4-ylmethyl)-1H-imidazol-5-ylmethyl]-3-(morpholinyl)carbonyl-4-(naphthalen-1-yl)-1H-pyrrole], the IC50 is 1 nM on Ras farnesyl transferase [1], 10 to 100 nM on Ras farnesyl transferase [2], 10 to 50 µM at Ras farnesyl transferase [3] and 16 nM at Ras farnesyl transferase [4].

With `COCCN(C)C(=O)c1cn(Cc2cncn2CC2CCN(C(=O)NC3CCCCC3)CC2)cc1-c1cccc2ccccc12` [Compound 11, 1-{1-[1-(N-Cyclohexylcarbamoyl)-piperidin-4-ylmethyl]-1H-imidazol-5-ylmethyl}-3-[N-(2-methoxyethyl)-N-methyl]carbamoyl-4-(naphthalen-1-yl)-1H-pyrrole], the IC50 on Ras farnesyl transferase [1] was 1 to 10 nM; on Ras farnesyl transferase [2], 10 to 100 nM; on Ras farnesyl transferase [3], 1 to 50 µM; on Ras farnesyl transferase [4], 10 to 1000 nM.

As to `COCCN(C)C(=O)c1cn(Cc2cncn2CC2CCN(C(C)=O)CC2)cc1-c1cccc2ccccc12` [Compound 7, 1-[1-(1-Acetyl-piperidin-4-ylmethyl)-1H-imidazol-5-ylmethyl]-3-[N-(2-methoxyethyl)-N-methyl]carbamoyl-4-(naphthalen-1-yl)-1H-pyrrole], the IC50 was 1.8 nM on Ras farnesyl transferase [1], 10 to 100 nM on Ras farnesyl transferase [2], 10 to 100 µM on Ras farnesyl transferase [3] and 10 to 100 nM on Ras farnesyl transferase [4].

Turning to `CN1CCN(C(=O)c2cn(Cc3cncn3CC3CCN(C(=O)OCc4ccc(F)cc4)CC3)cc2-c2cccc3ccccc23)CC1` [Compound 47], the IC50 at Ras farnesyl transferase [1] was 3.3 nM; at Ras farnesyl transferase [2], 12.5 nM; on Ras farnesyl transferase [3], 4 µM; at Ras farnesyl transferase [4], 6 nM.
